Source: the Deep4Chem optical property database
Values belong to the compound of their own block, whether it stands above or below them.

Assay: solvent given as SMILES

Structure (SMILES): CCCCc1cc(-c2cccc(COC)c2)oc1-c1cccc(-c2cc(CCCC)c(-c3cccc(-c4cc(CCCC)c(-c5cccc(-c6oc(-c7cccc(-c8oc(-c9cccc(-c%10oc(-c%11cccc(COC)c%11)cc%10CCCC)c9)cc8CCCC)c7)cc6CCCC)c5)o4)c3)o2)c1
fluorescence lifetime (in ClC(Cl)Cl): 1.35 ns

Structure (SMILES): O=C([O-])COc1cc(NC(=O)c2ccc(-c3c4cc(Cl)c(=O)cc-4oc4cc(O)c(Cl)cc34)c(C(=O)[O-])c2)ccc1N(CC(=O)[O-])CC(=O)[O-]
fluorescence lifetime (in O): 1.21 ns

Structure (SMILES): c1cc2c3c(c1)-c1cccc4cccc(c14)B3c1cccc3cccc-2c13
fluorescence lifetime (in Cc1ccccc1): 6.31 ns

Structure (SMILES): Cc1cc(-c2ccc(-n3c4ccccc4c4ccccc43)cc2)nc(-c2ccc(-c3ccccc3)cc2)n1
fluorescence lifetime (in C1CCOC1): 4.02 ns
fluorescence lifetime (in CN(C)C=O): 6.66 ns
fluorescence lifetime (in Cc1ccccc1): 2.27 ns
fluorescence lifetime (in ClC(Cl)Cl): 3.93 ns

Structure (SMILES): c1ccc([C@]23CC[C@H](CC2)N=N3)cc1
fluorescence lifetime (in CC#N): 2.5 ns

Structure (SMILES): CCN(CC)c1ccc(/C=C/c2ccc(-c3ccc(/C=C/c4ccc(N(CC)CC)cc4)s3)s2)cc1
fluorescence lifetime (in C1CCOC1): 1.1 ns
fluorescence lifetime (in CC#N): 1.14 ns
fluorescence lifetime (in CC(C)=O): 1.11 ns
fluorescence lifetime (in CN(C)C=O): 1.18 ns
fluorescence lifetime (in Cc1ccccc1): 1.02 ns

Structure (SMILES): COC(=O)/C(C#N)=c1/cc/c(=c2/cc/c(=C(\C#N)C(=O)OC)s2)s1
fluorescence lifetime (in Cc1ccccc1): 0.016 ns

Structure (SMILES): CCCCCCCCCCCCN1C(=O)c2c(c3ccc4cc(-c5ccc(C#N)cc5)c(OC)cc4c3c3c2ccc2cc(-c4ccc(C#N)cc4)c(OC)cc23)C1=O
fluorescence lifetime (in ClCCl): 6.3 ns

Structure (SMILES): CCN(CC)c1ccc2cc(C#N)/c(=N\C(C)=O)oc2c1
fluorescence lifetime (in CCO): 1.8 ns
fluorescence lifetime (in ClCCl): 4 ns

Structure (SMILES): CC1=[N+]2C(=C(c3ccccc3)c3ccc(C)n3[B-]2(F)F)C=C1
fluorescence lifetime (in C1CCCCC1): 1.94 ns
fluorescence lifetime (in CC#N): 1.33 ns
fluorescence lifetime (in CCOC(C)=O): 1.71 ns
fluorescence lifetime (in CO): 1.46 ns
fluorescence lifetime (in Cc1ccccc1): 2.65 ns
fluorescence lifetime (in ClC(Cl)Cl): 2.65 ns

Structure (SMILES): c1ccc(N(c2ccccc2)c2ccc(-c3ccc4c(c3)C3(c5cc(-c6ccc(N(c7ccccc7)c7ccccc7)cc6)ccc5O4)c4ccccc4-c4ccccc43)cc2)cc1
fluorescence lifetime (in ClCCl): 1.2 ns

Structure (SMILES): C[Si]1(C)c2cc(-c3ccc(-c4cccs4)s3)ccc2C=Cc2ccc(-c3ccc(-c4cccs4)s3)cc21
fluorescence lifetime (in ClCCl): 0.94 ns

Structure (SMILES): CCN(CC)c1ccc2cc(C#N)c(=N)oc2c1
fluorescence lifetime (in ClCCl): 2.9 ns

Structure (SMILES): Cc1cc(C(F)(F)F)nc2c1ccc1nc(-c3ccc(Cl)cc3)cn12
fluorescence lifetime (in CC#N): 8.1 ns
fluorescence lifetime (in CCCCOC(C)=O): 6.83 ns
fluorescence lifetime (in CCOC(C)=O): 6.72 ns
fluorescence lifetime (in CO): 7.89 ns
fluorescence lifetime (in c1ccccc1): 6.26 ns

Structure (SMILES): CC(C)(C)c1ccc2c(c1)c1cc3c4cc(C(C)(C)C)ccc4c4c5c6ccc(C(C)(C)C)cc6c6cc7c8cc(C(C)(C)C)ccc8c8c2c1c(c34)c(c78)c65
fluorescence lifetime (in CCCCCC): 0.61 ns
fluorescence lifetime (in CCOCC): 0.618 ns
fluorescence lifetime (in Cc1ccccc1): 0.606 ns

Structure (SMILES): [NH-]c1cc(N)cc(-c2nc3ccccc3s2)c1
fluorescence lifetime (in O): 3.98 ns

Structure (SMILES): CCN1\C(=C/C=C/C=C/C2=[N+](CC)c3ccc4ccccc4c3C2(C)C)C(C)(C)c2c1ccc1ccccc21
fluorescence lifetime (in C1CCOC1): 1.11 ns
fluorescence lifetime (in CC#N): 0.85 ns
fluorescence lifetime (in CC(C)=O): 0.96 ns
fluorescence lifetime (in CCO): 0.93 ns
fluorescence lifetime (in CN(C)C=O): 1.19 ns
fluorescence lifetime (in CO): 0.76 ns
fluorescence lifetime (in CS(C)=O): 1.31 ns
fluorescence lifetime (in ClCCl): 1.3 ns

Structure (SMILES): CCCCn1c(-c2ccc(-c3nnc(-c4cccs4)o3)cc2)nc2c3ccccc3c3ccccc3c21
fluorescence lifetime (in ClCCl): 1.76 ns

Structure (SMILES): CC/C=C/C=C/C=C/C=C/CCCCCCCC(=O)O
fluorescence lifetime (in CCCCCCCCCC): 3.1 ns
fluorescence lifetime (in CCCCO): 1.5 ns

Structure (SMILES): C=C[C@]12CC[C@H](CC1)N=N2
fluorescence lifetime (in CC#N): 0.56 ns

Structure (SMILES): CC1(C)c2ccccc2N(c2ccc(-c3nc(C#N)c(C#N)nc3-c3ccc(N4c5ccccc5C(C)(C)c5ccccc54)cc3)cc2)c2ccccc21
fluorescence lifetime (in c1cc(-c2cccc(-n3c4ccccc4c4ccccc43)c2)cc(-n2c3ccccc3c3ccccc32)c1): 30 ns

Structure (SMILES): Brc1cc(/C=C/c2ccc(N(c3ccccc3)c3ccccc3)cc2)c(Br)cc1/C=C/c1ccc(N(c2ccccc2)c2ccccc2)cc1
fluorescence lifetime (in ClCCl): 0.89 ns

Structure (SMILES): CCCCOC(=O)c1cc(Oc2ccc(C(C)(C)C)cc2)c2c3c(Cl)cc4c5c(cc(Cl)c(c6c(Oc7ccc(C(C)(C)C)cc7)cc(C(=O)OCCCC)c1c26)c53)C(=O)N(c1c(C(C)C)cccc1C(C)C)C4=O
fluorescence lifetime (in Cc1ccccc1): 6.42 ns

Now from value to compound:

fluorescence lifetime (in CC#N): 2.41 ns
fluorescence lifetime (in CO): 2.38 ns
fluorescence lifetime (in O): 2.56 ns
Structure (SMILES): CNCCCC1c2ccccc2C=Cc2ccccc21

fluorescence lifetime (in CO): 0.83 ns
fluorescence lifetime (in ClC(Cl)Cl): 4.41 ns
Structure (SMILES): CC[n+]1c(C=C2C(=O)C(C=C3Sc4cc(Cl)ccc4N3C)=C2[O-])[se]c2ccccc21

fluorescence lifetime (in O): 4.2 ns
Structure (SMILES): O=C(O)CCCCCNC(=O)c1cccc2c(=O)c3ccccc3[nH]c12

fluorescence lifetime (in O): 10.9 ns
Structure (SMILES): CCOC(=O)CCCCCn1c2ccccc2c(=O)c2cc(N)ccc21

fluorescence lifetime (in C1CCCCC1): 56 ns
Structure (SMILES): CC(C)(C)[Si](C)(C)c1cccc2ccccc12

fluorescence lifetime (in CC#N): 2.9 ns
fluorescence lifetime (in CCCCCC): 1.5 ns
Structure (SMILES): C/C=C/c1cc(OC)cc(OC)c1

fluorescence lifetime (in C1CCCCC1): 9.9 ns
fluorescence lifetime (in CC#N): 1.8 ns
Structure (SMILES): COc1ccc2c(c1)C(=O)c1ccccc1-2

fluorescence lifetime (in C1CCOC1): 7 ns
Structure (SMILES): CN(C)c1ccc(C(=Cc2ccc(C=O)cc2)c2ccc(N(C)C)cc2)cc1

fluorescence lifetime (in CN(C)C=O): 2.2 ns
Structure (SMILES): O=C([O-])c1c2ccccc2c(C(=O)[O-])c2ccccc12

fluorescence lifetime (in CO): 622 ns
Structure (SMILES): O=C(O)CCCc1cc2ccc3cccc4ccc(c1)c2c34
